Assay results published in patent US20220401514A1, “ANTIMICROBIAL, BACTERIOPHAGE-DERIVED POLYPEPTIDES AND THEIR USE AGAINST GRAM-NEGATIVE AND ACID-FAST BACTERIA” (CONTRAFECT CORPORATION, priority 2019, published 2022).

Columns and labels:
[1] = system: carbapenem-resistant P. aeruginosa clinical isolate CFS-1292; experiment: MIC by modified CLSI broth microdilution against P. aeruginosa CFS-1292 (CAA, CAA + human serum); format: cell-based, Pseudomonas aeruginosa
[2] = system: carbapenem-resistant bacterial strains; experiment: organism not typed; format: cell-based
Text: Determination of Minimal Inhibitory Concentrations (MIC).

[3] = system: eight different strains of five species of Gram-negative bacteria; experiment: MBEC in eight strains of five species of Gram-negative bacteria; format: cell-based; conditions: for MBEC: 24 h biofilm in LB, 16 h treatment
Protocol: Determination of Minimal Biofilm Eradicating Concentrations (MBEC). […] The OD600 of extracted crystal violet was determined. The MBEC value of each sample was determined as the minimum drug concentration required to remove >95% of biofilm biomass as assessed by crystal violet quantitation (in comparison to untreated controls).
MBEC values were likewise determined for Chp2, Chp2-M1, and Chp10-M1 in eight different strains of five species of Gram-negative bacteria. […] The films were then washed and stained with crystal violet to visualize the MBEC.

[4] = system: P. aeruginosa strain CFS-1292; experiment: Checkerboard assay (FICI) with antibiotics, P. aeruginosa; format: cell-based, Pseudomonas aeruginosa; design: key to FIC Index: FICI = FIC A + FIC B; each FIC = MIC in combination / MIC alone; conditions: for FICI: CAA + […] human serum; for Chp peptide MIC in checkerboard: P. aeruginosa CFS-1292, CAA + […] human serum
Method in brief: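 Antibiotic diluted 2-fold along one plate axis against Chp peptide; bacteria added at 1×10^5 […] in CAA, optionally with human serum or pulmonary surfactant.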

[5] = system: Klebsiella pneumoniae strain 1139; experiment: Checkerboard assay (FICI) with antibiotics, K. pneumoniae; format: cell-based
Method in brief: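 Antibiotics in 2-fold dilutions across one axis against Chp peptide dilutions on the other. FICI = MIC in combination/MIC alone for antibiotic plus the same ratio for peptide; minimum FICI used. Synergy at FICI ≤0.5, strongly additive >0.5 to <1, additive 1-<2, antagonistic ≥2.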

MRLKMARRRYRLPRRRSRRLFSRTALRMHPRNRLRRIMRGGIRF [Chp2]
MIC (μg/mL) against CFS-1292 in 100% CAA (1st run/2nd run) ([1]; 100% CAA, 1st run or single value): 0.5 µg/mL
MIC (μg/mL) against CFS-1292 in CAA + […] human serum ([1]; CAA + […] human serum): 0.5 µg/mL
MIC ([2]; carbapenem-resistant isolate PA19): 0.5 µg/mL
MIC ([2]; carbapenem-resistant isolate PA20): 1 µg/mL
MIC ([2]; carbapenem-resistant isolate PA21): 1 µg/mL
MIC ([2]; carbapenem-resistant isolate PA22): 1 µg/mL
MIC ([2]; carbapenem-resistant isolate PA23): 1 µg/mL
MIC ([2]; carbapenem-resistant isolate PA24): 1 µg/mL
MIC ([2]; carbapenem-resistant isolate WLC-452): 0.5 µg/mL
MBEC ([3]; A. baumanni (ATCC BAA-747)): 0.5 µg/mL
MBEC ([3]; E. cloacae (CCUG 63317)): 2 µg/mL
MBEC ([3]; E. coli (ATCC 25922)): 2 µg/mL
MBEC ([3]; E. coli (ATCC 35329)): 4 µg/mL
MBEC ([3]; E. coli (EC2)): 2 µg/mL
MBEC ([3]; K. pneumoniae (ATCC 700603)): 4 µg/mL
MBEC ([3]; K. pneumoniae (KP1)): 2 µg/mL
MBEC ([3]; P. aeruginosa (ATCC 27853)): 0.25 µg/mL
antibiofilm activity (MBEC) ([3]; biofilms formed 24 hours in LB, treated 16 hours): potent antibiofilm activity
FIC Index ([4]; Chp peptide combined with Amikacin, P. aeruginosa CFS-1292): 0.5
FIC Index ([4]; Chp peptide combined with Azithromycin, P. aeruginosa CFS-1292): 0.375
FIC Index ([4]; Chp peptide combined with Aztreonam, P. aeruginosa CFS-1292): 0.375
FIC Index ([4]; Chp peptide combined with Ciprofloxacin, P. aeruginosa CFS-1292): 0.75
FIC Index ([4]; Chp peptide combined with Colistin, P. aeruginosa CFS-1292): 0.375
FIC Index ([4]; Chp peptide combined with Gentamicin, P. aeruginosa CFS-1292): 0.5625
FIC Index ([4]; Chp peptide combined with Imipenem, P. aeruginosa CFS-1292): 0.375
FIC Index ([4]; Chp peptide combined with Levofloxacin, P. aeruginosa CFS-1292): 0.5
FIC Index ([4]; Chp peptide combined with Meropenem, P. aeruginosa CFS-1292): 0.375
FIC Index ([4]; Chp peptide combined with Piperacillin, P. aeruginosa CFS-1292): 1
FIC Index ([4]; Chp peptide combined with Tobramycin, P. aeruginosa CFS-1292): 0.375
interaction between the Chp peptide and the antibiotic (FICI values) ([4]; P. aeruginosa CFS-1292, range of antibiotics): either synergy (i.e., ≤0.5) or strongly additive (i.e., >0.5-1)
FICI ([4]; combination with Amikacin): 0.500
FICI ([4]; combination with Azithromycin): 0.156
FICI ([4]; combination with Aztreonam): 0.500
FICI ([4]; combination with Ciprofloxacin): 0.500
FICI ([4]; combination with Colistin): 0.375
FICI ([4]; combination with Fosfomycin): 0.250
FICI ([4]; combination with Gentamicin): 0.281
FICI ([4]; combination with Imipenem): 0.188
FICI ([4]; combination with Piperacillin): 0.188
FICI ([4]; combination with Rifampicin): 0.563
FICI ([4]; combination with Tobramycin): 0.266
Chp peptide FIC ([4]; combined with Amikacin, P. aeruginosa CFS-1292): 0.25
Chp peptide MIC in checkerboard ([4]; combined with Amikacin): 0.25 µg/mL
Chp peptide FIC ([4]; combined with Azithromycin, P. aeruginosa CFS-1292): 0.125
Chp peptide MIC in checkerboard ([4]; combined with Azithromycin): 0.0625 µg/mL
Chp peptide FIC ([4]; combined with Aztreonam, P. aeruginosa CFS-1292): 0.125
Chp peptide MIC in checkerboard ([4]; combined with Aztreonam): 0.0625 µg/mL
Chp peptide FIC ([4]; combined with Ciprofloxacin, P. aeruginosa CFS-1292): 0.25
Chp peptide MIC in checkerboard ([4]; combined with Ciprofloxacin): 0.125 µg/mL
Chp peptide FIC ([4]; combined with Colistin, P. aeruginosa CFS-1292): 0.125
Chp peptide MIC in checkerboard ([4]; combined with Colistin): 0.0625 µg/mL
Chp peptide FIC ([4]; combined with Gentamicin, P. aeruginosa CFS-1292): 0.0625
Chp peptide MIC in checkerboard ([4]; combined with Gentamicin): 0.03125 µg/mL
Chp peptide FIC ([4]; combined with Imipenem, P. aeruginosa CFS-1292): 0.25
Chp peptide MIC in checkerboard ([4]; combined with Imipenem): 0.125 µg/mL
Chp peptide FIC ([4]; combined with Levofloxacin, P. aeruginosa CFS-1292): 0.25
Chp peptide MIC in checkerboard ([4]; combined with Levofloxacin): 0.0625 µg/mL
Chp peptide FIC ([4]; combined with Meropenem, P. aeruginosa CFS-1292): 0.125
Chp peptide MIC in checkerboard ([4]; combined with Meropenem): 0.0625 µg/mL
Chp peptide FIC ([4]; combined with Piperacillin, P. aeruginosa CFS-1292): 0.5
Chp peptide MIC in checkerboard ([4]; combined with Piperacillin): 0.25 µg/mL
Chp peptide FIC ([4]; combined with Tobramycin, P. aeruginosa CFS-1292): 0.125
Chp peptide MIC in checkerboard ([4]; combined with Tobramycin): 0.0625 µg/mL
FIC Index ([5]; Chp peptide combined with Azithromycin): 0.25
FIC Index ([5]; Chp peptide combined with Aztreonam): 0.563
